The text below walks through data of US20080312255A1 (ASTRAZENECA AB, priority 2007, published 2008).

Structures can show the parent of a compound that is named as a salt.

For the experiment, the target named is S. aureus GyrB ATPase (Staphylococcus aureus, UniProt P0A0K8). In words: S. aureus GyrB ATPase inhibition (ammonium molybdate/malachite green phosphate detection). It counts as biochemical. To be noted: compound concentration of 1 μM. Here is the method: S. aureus GyrB ATPase Inhibition Activity: Compounds may be tested for inhibition of S. aureus GyrB ATPase activity using an ammonium molybdate/malachite green-based phosphate detection assay (Lanzetta, P. A., L. J. Alvarez, P. S. Reinach, and O. A. Candia, 1979, 100: 95-97). Assays can be performed in multiwell plates in 30 μl reactions containing: 50 mM Hepes buffer pH 7.5, 75 mM ammonium acetate, 8.0 mM magnesium chloride, 0.5 mM ethylenediaminetetraacetic acid, 5% glycerol, 1.0 mM 1,4-Dithio-DL-threitol, 200 nM bovine serum albumin, 1.0 μg/ml sheared salmon sperm DNA, 250 pM E. coli GyrA, 250 pM S. aureus GyrB, 250 μM ATP, and compound in dimethylsulfoxide. Reactions can be quenched with […] of ammonium molybdate/malachite green detection reagent containing 1.2 mM malachite green hydrochloride, 8.5 mM ammonium molybdate tetrahydrate, and 1 M hydrochloric acid. Plates can be read in an absorbance plate reader at 650 nm and percent inhibition values can be calculated using dimethylsulfoxide (2%)-containing reactions as 0% inhibition and EDTA-containing ([…]) reactions as 100% inhibition controls. An IC50 measurement of compound potency for each compound can be determined from reactions performed in the presence of 10 different compound concentrations.
S. aureus GyrB ATPase, sequence (P0AES4 whole entry): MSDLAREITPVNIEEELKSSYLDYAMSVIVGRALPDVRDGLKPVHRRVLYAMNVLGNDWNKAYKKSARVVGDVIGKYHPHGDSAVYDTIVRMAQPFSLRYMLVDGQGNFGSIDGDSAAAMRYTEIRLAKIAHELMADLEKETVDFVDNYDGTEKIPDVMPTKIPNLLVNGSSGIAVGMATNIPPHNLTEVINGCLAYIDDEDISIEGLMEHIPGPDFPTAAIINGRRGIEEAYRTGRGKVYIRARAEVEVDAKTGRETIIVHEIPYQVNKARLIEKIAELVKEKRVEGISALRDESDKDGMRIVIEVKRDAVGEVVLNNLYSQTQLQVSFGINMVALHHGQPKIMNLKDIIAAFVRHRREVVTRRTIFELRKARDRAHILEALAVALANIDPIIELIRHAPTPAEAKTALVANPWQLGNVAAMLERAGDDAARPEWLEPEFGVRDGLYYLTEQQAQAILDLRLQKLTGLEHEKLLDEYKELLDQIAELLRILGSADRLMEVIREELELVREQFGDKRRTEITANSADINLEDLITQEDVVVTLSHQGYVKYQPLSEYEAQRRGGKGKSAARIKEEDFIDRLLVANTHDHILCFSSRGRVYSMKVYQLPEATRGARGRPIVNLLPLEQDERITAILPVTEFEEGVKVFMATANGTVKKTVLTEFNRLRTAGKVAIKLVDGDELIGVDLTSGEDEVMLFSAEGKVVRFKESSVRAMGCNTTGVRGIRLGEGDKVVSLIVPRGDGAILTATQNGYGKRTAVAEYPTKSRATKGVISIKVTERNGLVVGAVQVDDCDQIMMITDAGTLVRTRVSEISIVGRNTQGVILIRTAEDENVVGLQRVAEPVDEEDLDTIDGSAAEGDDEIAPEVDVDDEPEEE
S. aureus GyrB ATPase, sequence (P0A0K8 whole entry): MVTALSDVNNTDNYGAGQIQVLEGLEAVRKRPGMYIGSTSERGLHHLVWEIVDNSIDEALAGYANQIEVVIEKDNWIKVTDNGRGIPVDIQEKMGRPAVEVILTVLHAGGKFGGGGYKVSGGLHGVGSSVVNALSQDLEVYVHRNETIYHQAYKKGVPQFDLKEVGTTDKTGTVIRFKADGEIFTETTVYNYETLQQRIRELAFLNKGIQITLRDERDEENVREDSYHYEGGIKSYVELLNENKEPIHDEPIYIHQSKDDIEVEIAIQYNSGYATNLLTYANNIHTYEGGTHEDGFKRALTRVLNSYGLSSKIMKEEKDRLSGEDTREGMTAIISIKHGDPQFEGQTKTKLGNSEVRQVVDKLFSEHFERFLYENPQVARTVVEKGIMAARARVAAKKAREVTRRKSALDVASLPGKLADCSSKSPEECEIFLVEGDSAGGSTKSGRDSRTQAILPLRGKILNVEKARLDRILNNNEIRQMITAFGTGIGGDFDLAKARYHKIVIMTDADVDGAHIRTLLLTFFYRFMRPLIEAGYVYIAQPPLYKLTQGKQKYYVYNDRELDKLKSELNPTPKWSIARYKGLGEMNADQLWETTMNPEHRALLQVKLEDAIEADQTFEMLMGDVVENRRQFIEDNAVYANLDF
Compounds of the invention were tested in an assay substantially similar to the assay described above for measuring the inhibition of S. aureus GyrB ATPase. Percent inhibition of S. aureus GyrB ATPase at a compound concentration of 1 μM (unless otherwise noted) is disclosed in the following table: […]
With `CCOC(=O)c1sc(N2CC[C@@H](NC(=O)c3[nH]c(C)c(Cl)c3Cl)[C@@H](OC)C2)nc1-c1cn(C)cn1` [Example 77], the inhibition (usually the relative decrease from the control value, in per cent) at 1 µM came to 100%.
On to `COC(=O)c1sc(N2CC[C@@H](NC(=O)c3[nH]c(C)c(Cl)c3Cl)[C@@H](F)C2)nc1-c1cn(C)nn1` [Example 99, methyl 2-((3S,4R)-4-(3,4-dichloro-5-methyl-1H-pyrrole-2-carboxamido)-3-fluoropiperidin-1-yl)-4-(1-methyl-1H-1,2,3-triazol-4-yl)thiazole-5-carboxylate], for which the inhibition at 1 µM was 102%.
Then `COCCn1ccnc1-c1nc(N2CC[C@@H](NC(=O)c3[nH]c(C)c(Cl)c3Cl)[C@@H](OC)C2)sc1C(=O)O` [Example 25, 2-((3S,4R)-4-{[(3,4-Dichloro-5-methyl-1H-pyrrol-2-yl)carbonyl]amino}-3-methoxypiperidin-1-yl)-4-[1-(2-methoxyethyl)-1H-imidazol-2-yl]-1,3-thiazole-5-carboxylic acid], with 98.3%.
On to `CCOC(=O)c1sc(N2CC[C@@H](NC(=O)c3[nH]c(C)c(Cl)c3Cl)[C@@H](F)C2)nc1-c1ccncn1` [Example 46], for which the inhibition at 1 µM stood at 102%.
The value for `CCOC(=O)c1sc(N2CC[C@@H](NC(=O)c3[nH]c(C)c(Cl)c3Cl)[C@@H](F)C2)nc1-c1nc2ccccc2s1` [Example 56] was 93.9%; that for `CO[C@H]1CN(c2nc(-c3n(C)cc[n+]3C)c(C(=O)O)s2)CC[C@H]1NC(=O)c1[nH]c(C)c(Cl)c1Cl` [Example 22, 2-[5-Carboxy-2-((3S,4R)-4-{[(3,4-dichloro-5-methyl-1H-pyrrol-2-yl)carbonyl]amino}-3-methoxypiperidin-1-yl)-1,3-thiazol-4-yl]-1,3-dimethyl-1H-imidazol-3-ium trifluoroacetate] was 101%; that for `COC(=O)c1sc(N2CC[C@@H](NC(=O)c3[nH]c(C)c(Cl)c3Cl)[C@@H](F)C2)nc1-c1nccn1C` [Example 79] was 101%.
Turning to `COC(=O)c1sc(N2CC[C@@H](NC(=O)c3[nH]c(C)c(Cl)c3Cl)[C@@H](OC)C2)nc1-c1nc(C)c(C)n1C` [Example 70], the inhibition at 1 µM is 99.5%.
With `CCOC(=O)c1sc(N2CC[C@@H](NC(=O)c3[nH]c(C)c(Cl)c3Cl)[C@@H](F)C2)nc1-c1cc(OC)ccn1` [Example 98, Ethyl 2-((3S,4R)-4-(3,4-dichloro-5-methyl-1H-pyrrole-2-carboxamido)-3-fluoropiperidin-1-yl)-4-(4-methoxypyridin-2-yl)thiazole-5-carboxylate], the inhibition at 1 µM turned out to be 84.4%.
The value for `CCOC(=O)c1sc(N2CC[C@@H](NC(=O)c3[nH]c(C)c(Cl)c3Cl)[C@@H](F)C2)nc1-c1cnccn1` [Example 55] was 97.9%; that for `Cc1[nH]c(C(=O)N[C@@H]2CCN(c3nc(-c4cnccn4)c(C(=O)O)s3)C[C@@H]2OCc2ccccc2)cc1Cl` [Example 150, 2-[(3S,4R)-3-(benzyloxy)-4-{[(4-chloro-5-methyl-1H-pyrrol-2-yl)carbonyl]amino}piperidin-1-yl]-4-(pyrazin-2-yl)-1,3-thiazole-5-carboxylic acid] was 102%.
Take `COCCn1ccnc1-c1nc(N2CC[C@@H](NC(=O)c3cc(Cl)c(C)[nH]3)[C@@H](OCc3ccccc3)C2)sc1C(=O)O` [Example 148, 2-[(3S,4R)-3-(benzyloxy)-4-{[(4-chloro-5-methyl-1H-pyrrol-2-yl)carbonyl]amino}piperidin-1-yl]-4-[1-(2-methoxyethyl)-1H-imidazol-2-yl]-1,3-thiazole-5-carboxylic acid]: the inhibition at 1 µM was found to be 99.9%.
Then `CCOC(=O)c1sc(N2CC[C@@H](NC(=O)c3[nH]c(C)c(Cl)c3Cl)[C@@H](OC)C2)nc1-c1nc(C)no1` [Example 84], with 103%.
Consider `Cc1[nH]c(C(=O)N[C@@H]2CCN(c3nc(-c4nccn4C)c(C(=O)O)s3)C[C@@H]2F)c(Cl)c1Cl` [Example 39, 2-((3S,4R)-4-{[(3,4-Dichloro-5-methyl-1H-pyrrol-2-yl)carbonyl]amino}-3-fluoropiperidin-1-yl)-4-(1-methyl-1H-imidazol-2-yl)-1,3-thiazole-5-carboxylic acid], for which the inhibition at 1 µM worked out at 101%.
Then `CO[C@H]1CN(c2nc(-c3cnc(C)cn3)c(C(=O)O)s2)CC[C@H]1NC(=O)c1[nH]c(C)c(Cl)c1C#N` [Example 124, 2-((3S,4R)-4-(4-chloro-3-cyano-5-methyl-1H-pyrrole-2-carboxamido)-3-methoxypiperidin-1-yl)-4-(5-methylpyrazin-2-yl)thiazole-5-carboxylic acid], with 104%.
For the compound `CO[C@H]1CN(c2nc(-c3ncnn3C)c(C(=O)O)s2)CC[C@H]1NC(=O)c1[nH]c(C)c(Cl)c1Cl` [Example 27, 2-((3S,4R)-4-{[(3,4-Dichloro-5-methyl-1H-pyrrol-2-yl)carbonyl]amino}-3-methoxypiperidin-1-yl)-4-(1-methyl-1H-1,2,4-triazol-5-yl)-1,3-thiazole-5-carboxylic acid], the inhibition at 1 µM stood at 99.9%.
The value for `CO[C@H]1CN(c2nc(-c3ncnn3C)c(C(=O)O)s2)CC[C@H]1NC(=O)c1[nH]c(C)c(Cl)c1C#N` [Example 121, 2-((3S,4R)-4-(4-chloro-3-cyano-5-methyl-1H-pyrrole-2-carboxamido)-3-methoxypiperidin-1-yl)-4-(1-methyl-1H-1,2,4-triazol-5-yl)thiazole-5-carboxylic acid] was 103%.
For the compound `CO[C@H]1CN(c2nc(-c3nc4ccccc4s3)c(C(=O)O)s2)CC[C@H]1NC(=O)c1[nH]c(C)c(Cl)c1Cl` [Example 13, 4-(1,3-Benzothiazol-2-yl)-2-((3S,4R)-4-{[(3,4-dichloro-5-methyl-1H-pyrrol-2-yl)carbonyl]amino}-3-methoxypiperidin-1-yl)-1,3-thiazole-5-carboxylic acid], the inhibition at 1 µM was 101%.
The value for `CO[C@H]1CN(c2nc(-c3ncnn3C)c(C(=O)O)s2)CC[C@H]1NC(=O)c1cc(C#N)c(C)[nH]1` [Example 31, 2-((3S,4R)-4-{[(4-Cyano-5-methyl-1H-pyrrol-2-yl)carbonyl]amino}-3-methoxypiperidin-1-yl)-4-(1-methyl-1H-1,2,4-triazol-5-yl)-1,3-thiazole-5-carboxylic acid] was 99.3%; that for `COC(=O)c1sc(N2CC[C@@H](NC(=O)c3[nH]c(C)c(Cl)c3Cl)[C@@H](F)C2)nc1-c1nccs1` [Example 47] was 101%; that for `COC(=O)c1sc(N2CC[C@@H](NC(=O)c3[nH]c(C)c(Cl)c3Cl)[C@@H](F)C2)nc1-c1ccno1` [Example 61] was 94.7%.
Then `COC(=O)c1sc(N2CC[C@@H](NC(=O)c3[nH]c(C)c(Cl)c3Cl)[C@@H](OC)C2)nc1-c1nccc(OC)n1` [Example 82], with 103%; and `CO[C@H]1CN(c2nc(-c3cn(C)cn3)c(C(=O)O)s2)CC[C@H]1NC(=O)c1[nH]c(C)c(Cl)c1Cl` [Example 40, 2-((3S,4R)-4-{[(3,4-Dichloro-5-methyl-1H-pyrrol-2-yl)carbonyl]amino}-3-methoxypiperidin-1-yl)-4-(1-methyl-1H-imidazol-4-yl)-1,3-thiazole-5-carboxylic acid], with 101%; and `CO[C@H]1CN(c2nc(-c3ccncn3)c(C(=O)O)s2)CC[C@H]1NC(=O)c1[nH]c(C)c(Cl)c1Cl` [Example 2, 2-((3S,4R)-4-{[(3,4-Dichloro-5-methyl-1H-pyrrol-2-yl)carbonyl]amino}-3-methoxypiperidin-1-yl)-4-pyrimidin-4-yl-1,3-thiazole-5-carboxylic acid], with 101%.
In the case of `CNc1nc(-c2nc(N3CC[C@@H](NC(=O)c4[nH]c(C)c(Cl)c4Cl)[C@@H](OC)C3)sc2C(=O)OC)cs1` [Example 72], the inhibition at 1 µM came out at 101%.
With `COc1cccc(-c2nc(N3CC[C@@H](NC(=O)c4[nH]c(C)c(Cl)c4Cl)[C@@H](OC)C3)sc2C(=O)O)n1` [Example 111, 2-((3S,4R)-4-(3,4-dichloro-5-methyl-1H-pyrrole-2-carboxamido)-3-methoxypiperidin-1-yl)-4-(6-methoxypyridin-2-yl)thiazole-5-carboxylic acid], the inhibition at 1 µM is 105%.
The value for `Cc1[nH]c(C(=O)N[C@@H]2CCN(c3nc(-c4ncnn4C)c(C(=O)O)s3)C[C@@H]2OCc2ccccc2)c(C#N)c1Cl` [Example 151, 2-[(3S,4R)-3-(benzyloxy)-4-{[(4-chloro-3-cyano-5-methyl-1H-pyrrol-2-yl)carbonyl]amino}piperidin-1-yl]-4-(1-methyl-1H-1,2,4-triazol-5-yl)-1,3-thiazole-5-carboxylic acid] was 115%; that for `COc1ccnc(-c2nc(N3CC[C@@H](NC(=O)c4[nH]c(C)c(Cl)c4Cl)[C@@H](OC)C3)sc2C(=O)O)c1` [Example 112, 2-((3S,4R)-4-(3,4-dichloro-5-methyl-1H-pyrrole-2-carboxamido)-3-methoxypiperidin-1-yl)-4-(4-methoxypyridin-2-yl)thiazole-5-carboxylic acid] was 81.1%; that for `COC(=O)c1sc(N2CC[C@@H](NC(=O)c3[nH]c(C)c(Cl)c3Cl)[C@@H](OC)C2)nc1-c1csc(N(C)C)n1` [Example 73] was 99.9%.
